This is an account of results in patent US8668925B2, “Transdermal delivery of hormones without the need of penetration enhancers” (Bayer Intellectual Property GmbH, priority 2003, dated 2014).

A short description of data set [1]: Serum pharmacokinetics of Ethinylestradiol and Gestodene during two patch treatment cycles. The arrangement: species or system women. The following applies: female, human, in vivo, topical or ocular, 0.9 mg, AUC(0-[…]) of ethinyl estradiol (EE), mean. An excerpt:
Arcare MA-24A® is a polyisobutylene based adhesive from Adhesive Research.
The treatment phase includes a period of two menstrual cycles. The first treatment in the first cycle began one day after the volunteers started menstruating in this cycle by application of a patch. A total of three test patches were applied in intervals of 7 days between, such as application at days 1, 8 and 15 of the first cycle—each at different application sites—during each treatment cycle. Each patch was worn for 7 days, then replaced with a new patch to complete a total of 21 days of continuous use. This was followed by a 7-day treatment-free interval before the next treatment period started with a total of three patches applied, each applied with an interval of 7 days. If the patches were lost or became more than 40% detached, a new patch was applied.
The AUC was calculated according to the linear trapezoidal rule.
The sampling points were at the day 18 of the last pre-treatment cycle and days 1, 2, 3, 4, 5, 6, 7, 8, 15, 16, 17, 18, 19, 20, 21 and 22 of cycle 1 as well as days 1 (before application of new patch), 2, 3, 4, 5, 6, 7, 8, 15, 16, 17, 18, 19, 20, 21 and 22 of cycle 2.
After incubation and centrifugation, the resultant precipitate was redissolved with NaOH. The assay has a lower limit of quantification of approx. 250 μg/ml.

The conditions of data set [2]: cited from earlier work.

What is called AUC(0-t) is the area under the concentration-time curve up to a stated or last time point. A high value points to high exposure. As for `C#C[C@]1(O)CC[C@H]2[C@@H]3CCc4cc(O)ccc4[C@H]3CC[C@@]21C` [ethinyl estradiol, Ethinylestradiol], the AUC(0-t) in data set [1] (Cycle 1, Week 1, test patch) was 5.3 ng·h/mL; in data set [1] (Cycle 1, Week 3, test patch), 6.1 ng·h/mL; in data set [1] (Cycle 2, Week 1, test patch) it was 5.1 ng·h/mL; in data set [1] (Cycle 2, Week 3, test patch) it was 5.8 ng·h/mL.
As for `C#C[C@]1(O)C=C[C@H]2[C@@H]3CCC4=CC(=O)CC[C@@H]4[C@H]3CC[C@@]21CC` [Gestodene, 13β-Ethyl-17α-ethynyl-17β-hydroxy-4,15-gonadien-3-one], in data set [2] (U.S. Pat. No. 5,376,377, ethylene vinyl acrylate adhesive layer, Gestodene and ethinylestradiol), the Maximal plasma levels result is recorded as “about 0.8 ng/ml”. The “maximal plasma levels of Gestodene” value in data set [2] (WO 92/07590, transdermal compositions with penetration enhancers) was “about 0.9 ng/ml”.
